The target in experiment [1] is T1, BACE (Homo sapiens, UniProt P56817). The experiment is described as follows: Competitive binding assay, displacement of labeled EBP from BACE, fluorescence anisotropy. On the set-up: The cDNA for the catalytic domain of human BACE (residues 1-460) was PCR-amplified; human IgG1 heavy chain (C, cleaved yes); thrombin cleavage site (C); made in house; host or cells: CHO DG44 cells (stably transfected, secreted). As to the method: The competitive binding assay was carried out at pH 7.1 (PBS buffer) or pH 4.5 (50 mM acetate buffer). The fluorescence anisotropy was measured at 25° C. in an AVIV fluorometer. The excitation and emission wavelengths were set to 495 and 519 nm, respectively. The excitation and emission slit widths were 4 and 10 nm, respectively.
T1 sequence (P56817 46-460 limits assumed): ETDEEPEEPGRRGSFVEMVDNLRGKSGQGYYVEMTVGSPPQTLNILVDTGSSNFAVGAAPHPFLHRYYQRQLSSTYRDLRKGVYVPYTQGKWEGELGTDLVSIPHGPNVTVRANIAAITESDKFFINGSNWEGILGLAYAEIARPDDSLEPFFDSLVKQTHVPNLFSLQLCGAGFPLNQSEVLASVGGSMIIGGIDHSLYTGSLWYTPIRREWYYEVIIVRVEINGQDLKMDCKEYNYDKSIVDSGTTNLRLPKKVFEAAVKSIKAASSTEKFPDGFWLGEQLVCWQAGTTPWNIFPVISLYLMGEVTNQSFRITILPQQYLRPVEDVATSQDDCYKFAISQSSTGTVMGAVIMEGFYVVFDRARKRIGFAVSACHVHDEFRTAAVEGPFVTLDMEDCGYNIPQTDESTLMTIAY
The initial anisotropy value was measured. A concentrated unlabeled peptide or compound stock was titrated into the above solution of EBP and BACE. The final concentration of unlabeled peptide or compound ranges from 20 to 20000 nM. After each addition, the solution was mixed for 10 times with a pipettor. The fluorescence anisotropy was averaged over a 5 minute period.
The change in anisotropy was converted to fractional occupancy based on the r0 and rb obtained from the binding assay. The fractional occupancy was then plotted against the concentration of the competing peptide or compound. (see, for example, FIG. 6) The Kd of the competing ligand was calculated from curve fitting using the program […]™ (Synergy Software, Reading, Pa.). The equation used to fit the competition data is identical to equation 4 in Lai et al., (2000) Arch. Biochem. Biophys. 381:278-284.
The truncated unlabeled peptides were screened at a single concentration of 10 μM at pH 4.5. The anisotropy values detected with Molecule X in the absence of inhibitor, i.e., truncated unlabeled peptide (ra) and in the presence of the inhibitor (rb) and the labeled peptide alone (r0) were used to calculate the percent of inhibition: 100 (ra-rb)/(ra-r0). The percent of inhibition was compared among the truncated peptides.

Experiment [2] addresses T1, BACE. The experiment is described as follows: Isothermal titration calorimetry (ITC) of BACE and peptides. The format is binding. On the set-up: The cDNA for the catalytic domain of human BACE (residues 1-460) was PCR-amplified; human IgG1 heavy chain (C, cleaved yes); thrombin cleavage site (C); made in house; host or cells: CHO DG44 cells (stably transfected, secreted). The following applies: 25° C. The procedure:
Isothermal titration calorimetry was performed to determine quantitatively the binding affinities of BMS-561877 and BMS-561871 for β-secretase. Recombinant human BACE was expressed as a fusion protein with human IgG1, in Chinese hamster ovary (CHO) cells (Vassar et al., (1999) Science 286:735-741 and Haniu et al., (2000) J. Biol. Chem. 275:21099-21106).
This construct, referred to as BACE-T-IgG, also contained a protease cleavage site between BACE and IgG1, sensitive to human α-thrombin. The cDNA for the catalytic domain of human BACE (residues 1-460) was PCR-amplified and subcloned into the mammalian expression vector pTV1.6, upstream of a thrombin cleavage site linked to cDNA encoding human IgG1 heavy chain. The vector construct, pTV1.6-BACE-T-IgG, was used to produce stably transfected DHFR-deficient CHO DG44 cells, which were then scaled up using methotrexate for selection.
The clarified growth media harvested from CHO DG44 cells which contained the fusion protein was loaded onto a rProtein A SEPHAROSE™ column (5×20 cm, Amersham Pharmacia Biotech) using a peristaltic pump at 4° C., at 4 mL/min. The column was washed with Dulbecco's PBS, pH 7.1, 4 mL/min, until baseline absorbance at 280 nm was observed. BACE-T-IgG was eluted from the resin with 0.10 M citrate, pH 3.0, into tubes containing 0.5 volumes of 4 M Tris, pH 8. Fractions containing the fusion protein were dialyzed extensively using 12,000-14,000 […] MWCO membrane (UltraPURE, GIBCO BRL) against PBS, pH 7.1, at 4° C. The protein was sterile filtered (0.22 μm) and stored at 4° C.
To generate BACE for binding experiments, the fusion protein BACE-T-IgG was treated with human α-thrombin (Enzyme Research Labs, South Bend, Ind.) at a ratio of 1:500 (mass:mass) in Dulbecco's PBS, pH 7.1, at 37° C. for 2 hr. Human α-thrombin was removed by passing the sample over Benzamidine SEPHAROSE™ 6B column (Amersham Pharmacia Biotech). The cleaved IgG1 was captured by passing the solution over a rProtein A SEPHAROSE™ (Amersham Pharmacia Biotech) column, whereas the BACE passed through this column. The protein sample was further purified by concentrating to 10-15 mg/mL using a centrifugation concentration unit (Millipore Ultrafree 10 kDa MWCO, 15 mL unit) and loading onto a SUPERDEX™ 200 PC 3.2/30 gel-filtration column (Amersham Pharmacia Biotech). The column was run at 3 mL/min with Dulbecco's PBS, pH 7.1, at room temperature. Fractions containing BACE were combined, sterile filtered (0.22 μm) and stored at 4° C.
BACE was prepared for isothermal titrating calorimetry by extensive dialysis against fresh buffer at 4° C. using 12,000-14,000 […] MWCO dialysis membrane (UltraPURE, GIBCO BRL). […] Following 2 buffer changes, the protein was removed from the membrane and centrifuged (5 min×4000 g, 4° C.) to remove particulates. The protein was stored at 4° C. until needed for the calorimetry experiments. The protein concentration was determined by 10-fold dilution into the same buffer, and measuring the UV absorbance at 280 nm in a 1.00 cm pathlength cell (calculated value=1.22 AU=1.00 mg/mL protein, based on mean glycosylated molecular weight=53.5 kDa, and given amino acid composition). Final concentrations used in isothermal titrating calorimetry were typically 5.0 μM, containing a final concentration of 0.5% v/v DMSO.
Peptides were dissolved in the buffer dialysate from protein dialysis, and equal volumes of DMSO were added to each (0.5% v/v DMSO). The pH values of the solutions were adjusted as necessary to equal that of the buffer dialysate and protein sample within 0.01 pH units.

Experiment [3] deals with T2, catalytic domain of human BACE expressed in a CHO cell line (Homo sapiens, UniProt P56817).
T2 construct: The cDNA for the catalytic domain of human BACE (residues 1-460) was PCR-amplified; human IgG1 heavy chain (C, cleaved yes); thrombin cleavage site (C); made in house; host or cells: CHO DG44 cells (stably transfected, secreted)
T2 sequence (P56817 46-460 limits assumed): as above
The experiment in a line: Fluorescently labeled EBP binding to BACE, fluorescence anisotropy. The settings on record: pH 4.5 (50 mM acetate), 25° C., 1:1 binding model; read-out: binding constant (Kd) of labeled EBP. The procedure:
An assay to evaluate the binding of BACE to EBPs labeled with a fluorescent molecule (for example, but not limited to Alexa488) was developed. This assay uses the catalytic domain of human BACE expressed in a CHO cell line (according to Example 3) and labeled EBPs such as Molecule X shown in FIG. 4. The change in fluorescent anisotropy of the EBP peptide upon binding to BACE is monitored.
Peptides were dissolved in 100% DMSO (dimethyl sulfoxide) at 10 mM concentration, and then diluted 10-fold into deionized water. The concentration of the labeled peptides was determined by their absorbance at 495 nm (ε=71000 cm^−1M^−1). The concentration of selected unlabeled peptides was determined by their Tyr absorbance at 276 nm (ε=1390 cm^−1M^−1 per Tyr residue).
The binding was carried out at pH 7.1 (PBS buffer) and pH 4.5 (50 mM acetate buffer) in the presence of 1% DMSO. Fluorescence anisotropy was measured at 25° C. in an AVIV fluorometer. The excitation and emission wavelengths were set to 495 and 519 nm, respectively. The excitation and emission slit width were 4 and 10 nm, respectively. A concentrated BACE stock was used to titrate a 300 μl solution of 10 nM labeled EBP. The final BACE concentration ranges from 10 to 5000 nM. After the addition of BACE, the solution was mixed for 10 times with a pipettor. The fluorescence anisotropy was averaged over a 5 minute period.
The change in anisotropy was plotted against the BACE concentration (see, for example, FIG. 5). The Kd of the labeled EBP as well as the initial (r0) and final anisotropy (rb) of the labeled EBP were calculated from curve fitting using the program Kaleidagraph. The equation used to fit the binding data is identical to equation 1 in Lai et al., (2000) Arch. Biochem. Biophys. 381:278-284.
A general note: Fluorescence polarisation rises when a labelled molecule tumbles more slowly, as on binding a larger partner.

Alexa488 = Alexa Fluor 488 fluorescent label

For `CC[C@H](C)[C@H](NC(=O)[C@H](Cc1ccccc1)NC(=O)[C@H](Cc1ccc(O)cc1)NC(=O)[C@@H]1CCCN1C(=O)[C@H](Cc1ccc(O)cc1)NC(C)=O)C(=O)N1CCC[C@H]1C(=O)N[C@@H](CC(C)C)C(N)=O` [BMS-593925, Tyr-Pro-Tyr-Phe-Ile-Pro-Leu], in experiment [1] (pH 4.5, displacement of Molecule Y1, read-out: Kd of unlabeled EBP by competition), the Kd (as a rule, a measure of binding affinity in units of concentration) came to 1200 nM.
Consider Ac-HWPFFIRS-NH2 [BMS-655507], for which, in experiment [2] (50 mM NaOAc, pH 4.5), the KA amounted to 610000 M⁻¹, the Kd was determined as 1640 nM, the TΔS is -5.46 kcal/mol and the ΔG is -7.90 kcal/mol. In addition, in experiment [2] (50 mM NaOAc, pH 4.5), the ΔH was -13.35 kcal/mol. Moreover, in experiment [2] (Dulbecco's PBS, pH 7.0), the KA is 1.09e+06 M⁻¹, the Kd came to 914 nM, the TΔS is -9.81 kcal/mol and the ΔG was -8.23 kcal/mol. The same compound had a ΔH in experiment [2] (Dulbecco's PBS, pH 7.0) of -18.04 kcal/mol.
Consider “LYPPYIF (Ac-LYPPYIF-NH2) [BMS-599271, scrambled peptide containing the same amino acids as BMS-593925]”, for which the “binding to BACE” value in experiment [1] (scrambled peptide) was “does not bind to BACE”.
With “Molecule Y2: analog of Molecule Y1 with different length of linker between Alexa488 and the peptide (Ac-YPYFIPL-Alexa488; also: linker between peptide and Alexa488 not given here)”, in experiment [3], the Kd was 92 nM.
Turning to “Molecule Y4: analog of Molecule Y1 with different length of linker between Alexa488 and the peptide (Ac-YPYFIPL-Alexa488; also: linker between peptide and Alexa488 not given here)”, the Kd in experiment [3] came out at 62 nM.

Source of the values: patent US7314726B2, “Beta secretase exosite binding peptides and methods for identifying beta secretase modulators” (Bristol-Myers Squibb Company, priority 2002, dated 2008).
